In brackets after ≈: the same amount, converted by molar mass. Several values for one entry are separate records, joined by “and”; a condition that tells them apart may be missing. Equal entries are not always repeated. Where two headings read alike, the source gives them in different places.
Columns and labels:
human Topo I = human Topo I (Homo sapiens, UniProt P11387); test: biochemical
P. aeruginosa ATCC 27853 = test: microbe, parasite or virus in culture; format: cell-based; conditions: Pseudomonas aeruginosa, ATCC27853
E. coli ATCC 25922 = test: microbe, parasite or virus in culture; format: cell-based; conditions: Escherichia coli, ATCC25922
B. pseudomallei = test: microbe, parasite or virus in culture; format: cell-based, Burkholderia pseudomallei; conditions: for MIC50 / MIC90: Burkholderia pseudomallei
B. mallei = test: microbe, parasite or virus in culture; format: cell-based, Burkholderia mallei; conditions: for MIC50 / MIC90: Burkholderia mallei
F. tularensis = test: microbe, parasite or virus in culture; format: cell-based, Francisella tularensis
B. anthracis = test: microbe, parasite or virus in culture; format: cell-based, Bacillus anthracis
Y. pestis = test: microbe, parasite or virus in culture; format: cell-based, Yersinia pestis
[1] = molecular target: Quinolone-resistant E. coli gyrase (Escherichia coli, UniProt P0AES4+P0AES6); format: biochemical; conditions: read-out: IC50, E. coli quinolone-resistant gyrase
[2] = system: B. pseudomallei strain 1026b; format: cell-based, Burkholderia pseudomallei
E. coli DNA gyrase = E. coli DNA gyrase (Escherichia coli, UniProt P0AES4+P0AES6); test: biochemical
S. aureus DNA gyrase = S. aureus DNA gyrase (Staphylococcus aureus, UniProt P0A0K8+P20831); test: biochemical
[3] = system: B. pseudomallei strain 1026b; set-up: species or system BALB/c mice; conditions: mouse, in vivo
[4] = not told
E. coli Topo IV = E. coli Topo IV (Escherichia coli, UniProt P0AFI2+P20083); test: biochemical
S. aureus Topo IV = S. aureus Topo IV (Staphylococcus aureus, UniProt P0C1S7+P0C1U9); test: biochemical
[5] = system: intracellular B. pseudomallei 1026b; test: microbe, parasite or virus in culture; format: cell-based, Burkholderia pseudomallei
[6] = system: B. pseudomallei 1026b-based efflux-proficient and -compromised strains; test: microbe, parasite or virus in culture; format: cell-based; conditions: Burkholderia pseudomallei, read-out: MIC under efflux by BpeEF-OprC
[7] = system: intracellular B. pseudomallei 1026b; conditions: cited from earlier work
[8] = system: B. pseudomallei strain 1026b; set-up: species or system BALB/c mice; conditions: mouse, in vivo; remark: listed apart in the source

human Topo I, sequence (P11387 whole entry): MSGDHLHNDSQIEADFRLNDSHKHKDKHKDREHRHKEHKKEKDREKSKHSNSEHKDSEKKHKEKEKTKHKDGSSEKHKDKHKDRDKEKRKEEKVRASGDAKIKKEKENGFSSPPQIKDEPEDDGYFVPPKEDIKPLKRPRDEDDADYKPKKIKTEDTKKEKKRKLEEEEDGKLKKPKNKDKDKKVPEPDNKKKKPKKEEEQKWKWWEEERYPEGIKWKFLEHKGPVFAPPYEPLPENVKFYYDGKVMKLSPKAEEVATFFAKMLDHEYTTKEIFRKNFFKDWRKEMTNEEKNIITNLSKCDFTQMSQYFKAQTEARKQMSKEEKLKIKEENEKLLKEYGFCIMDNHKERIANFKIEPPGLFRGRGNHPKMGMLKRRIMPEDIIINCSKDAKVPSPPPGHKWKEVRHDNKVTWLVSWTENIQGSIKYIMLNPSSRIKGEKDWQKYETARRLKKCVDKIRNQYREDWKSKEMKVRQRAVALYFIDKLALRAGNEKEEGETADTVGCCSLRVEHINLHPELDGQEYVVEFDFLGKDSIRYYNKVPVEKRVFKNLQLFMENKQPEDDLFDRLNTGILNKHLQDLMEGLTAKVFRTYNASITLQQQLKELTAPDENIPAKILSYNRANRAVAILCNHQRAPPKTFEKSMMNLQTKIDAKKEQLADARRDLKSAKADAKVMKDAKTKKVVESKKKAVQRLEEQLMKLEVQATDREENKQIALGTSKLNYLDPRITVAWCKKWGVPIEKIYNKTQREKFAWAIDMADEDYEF
E. coli Topo IV, sequence (P0AFI2 whole entry): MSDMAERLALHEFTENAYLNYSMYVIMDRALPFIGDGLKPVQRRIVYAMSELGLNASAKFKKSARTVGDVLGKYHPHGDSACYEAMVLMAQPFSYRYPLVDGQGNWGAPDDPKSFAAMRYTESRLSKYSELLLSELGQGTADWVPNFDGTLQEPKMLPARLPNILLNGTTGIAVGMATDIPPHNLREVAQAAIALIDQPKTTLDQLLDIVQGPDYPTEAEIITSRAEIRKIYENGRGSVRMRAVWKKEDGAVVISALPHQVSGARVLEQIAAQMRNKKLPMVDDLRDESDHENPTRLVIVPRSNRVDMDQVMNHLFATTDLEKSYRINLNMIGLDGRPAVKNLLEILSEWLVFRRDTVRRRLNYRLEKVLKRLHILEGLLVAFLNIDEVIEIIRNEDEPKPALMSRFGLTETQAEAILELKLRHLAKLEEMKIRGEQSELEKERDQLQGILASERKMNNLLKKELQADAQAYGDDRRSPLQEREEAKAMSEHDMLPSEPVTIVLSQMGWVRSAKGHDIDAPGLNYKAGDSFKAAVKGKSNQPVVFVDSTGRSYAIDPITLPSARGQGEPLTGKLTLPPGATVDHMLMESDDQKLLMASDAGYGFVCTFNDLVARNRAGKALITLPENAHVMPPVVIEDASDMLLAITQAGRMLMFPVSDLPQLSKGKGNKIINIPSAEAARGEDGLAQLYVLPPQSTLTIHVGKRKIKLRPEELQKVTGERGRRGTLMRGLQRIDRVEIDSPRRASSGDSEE
E. coli Topo IV, sequence (P20083 whole entry): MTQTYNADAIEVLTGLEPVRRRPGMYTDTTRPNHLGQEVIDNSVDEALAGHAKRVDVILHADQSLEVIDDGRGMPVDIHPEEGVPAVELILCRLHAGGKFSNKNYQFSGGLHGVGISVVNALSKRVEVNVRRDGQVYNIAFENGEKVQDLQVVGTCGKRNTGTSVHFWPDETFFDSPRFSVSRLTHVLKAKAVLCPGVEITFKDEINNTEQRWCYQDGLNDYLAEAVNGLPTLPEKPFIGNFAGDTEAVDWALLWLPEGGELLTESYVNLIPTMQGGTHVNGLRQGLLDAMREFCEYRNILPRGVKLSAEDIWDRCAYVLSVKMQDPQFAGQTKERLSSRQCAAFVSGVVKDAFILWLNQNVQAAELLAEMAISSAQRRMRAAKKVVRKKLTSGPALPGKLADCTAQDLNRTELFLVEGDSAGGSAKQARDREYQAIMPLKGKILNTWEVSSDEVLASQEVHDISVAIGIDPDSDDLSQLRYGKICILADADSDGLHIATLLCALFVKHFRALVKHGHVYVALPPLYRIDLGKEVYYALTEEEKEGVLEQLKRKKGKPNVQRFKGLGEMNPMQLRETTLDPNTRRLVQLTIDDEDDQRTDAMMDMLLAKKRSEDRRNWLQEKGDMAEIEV

O=C(O)c1cn(C2CC2)c2cc(N3CCNCC3)c(F)cc2c1=O [Ciprofloxacin, ciprofloxacin]
IC50 (human Topo I): > 100 µM | MIC (P. aeruginosa ATCC 27853): 0.25 µg/mL (≈ 0.754 µM) | MIC (E. coli ATCC 25922): ≤ 0.008 µg/mL

C[C@H]1c2cccc(O)c2C(=O)C2=C(O)[C@]3(O)C(=O)C(C(N)=O)=C(O)[C@@H](N(C)C)[C@@H]3[C@@H](O)[C@@H]21 [Doxycycline, doxycycline]
MIC range (B. pseudomallei): ≤0.06 to 32 µg/mL | MIC50 (B. pseudomallei): 0.5 µg/mL (≈ 1.13 µM) | MIC90 (B. pseudomallei): 4 µg/mL (≈ 9 µM) | MIC (P. aeruginosa ATCC 27853): > 16 µg/mL | MIC (E. coli ATCC 25922): 1 µg/mL (≈ 2.25 µM)

CC[C@H]1OC(=O)[C@H](C)[C@@H](O[C@H]2C[C@@](C)(OC)[C@@H](O)[C@H](C)O2)[C@H](C)[C@@H](O[C@@H]2O[C@H](C)C[C@H](N(C)C)[C@H]2O)[C@](C)(O)C[C@@H](C)CN(C)[C@H](C)[C@@H](O)[C@]1(C)O [Azithromycin]
MIC range (B. mallei): 0.12 to 1 µg/mL | MIC50 (B. mallei): 0.5 µg/mL (≈ 0.668 µM) | MIC90 (B. mallei): 0.5 µg/mL (≈ 0.668 µM)

N#Cc1c(N2C[C@@H]3NCCO[C@H]3C2)c(F)cc2c(=O)c(C(=O)O)cn(C3CC3)c12 [Finafloxacin, finafloxacin, reference compound]
MIC 50% (B. pseudomallei): 4 µg/mL (≈ 10 µM) | MIC 90% (B. pseudomallei): 8 µg/mL (≈ 20.1 µM) | MIC 50% (F. tularensis): ≤0.004 µg/mL | MIC 90% (F. tularensis): 0.008 µg/mL (≈ 0.0201 µM) | MIC range (F. tularensis): ≤0.004 to 0.12 µg/mL | MIC 50% (B. anthracis): 0.06 µg/mL (≈ 0.151 µM) | MIC 90% (B. anthracis): 0.12 µg/mL (≈ 0.301 µM) | MIC range (B. anthracis): 0.03 to 0.12 µg/mL | MIC 50% (B. mallei): 0.25 µg/mL (≈ 0.628 µM) | MIC 90% (B. mallei): 2 µg/mL (≈ 5.02 µM) | MIC range (B. mallei): 0.015 to 2 µg/mL | MIC 50% (Y. pestis): 0.06 µg/mL (≈ 0.151 µM) | MIC 90% (Y. pestis): 0.12 µg/mL (≈ 0.301 µM) | MIC range (Y. pestis): 0.015 to 0.25 µg/mL

Cc1c(-c2cc(F)c(N)cc2F)ccn2c(=O)c(C(=O)O)cc(C3CC3)c12 [GC-072]
MIC range (B. pseudomallei): ≤0.008 to 1 µg/mL | share of strains with MICs higher than 0.5 μg/ml (B. pseudomallei): 7% | MIC50 (B. pseudomallei): 0.12 µg/mL (≈ 0.324 µM) | MIC90 (B. pseudomallei): 0.25 µg/mL (≈ 0.675 µM) | IC50 [1]: 1.3 to 1.5 µM | IC50 (human Topo I): > 100 µM | MIC range (F. tularensis): ≤0.0005 to 0.015 µg/mL | MIC50 (F. tularensis; Francisella tularensis): ≤ 0.0005 µg/mL | MIC90 (F. tularensis; Francisella tularensis): ≤ 0.0005 µg/mL | MIC for B. pseudomallei 1026b (time-kill study) [2]: 0.125 µg/mL | share of the full killing effect observed within 5 h [2]: more than 75% | IC50 (E. coli DNA gyrase): 0.18 to 1.5 µM | IC50 (S. aureus DNA gyrase): 2 µM | animals that survived to the end of the experiment [3]: four | median survival time [3]: 4.5 days and 4.75 days and 5.63 days | overall survival rate of the treated groups [3]: 87% | survival [3]: 90% and 80% | MIC range (B. anthracis): ≤0.0005 to 0.004 µg/mL | MIC50 (B. anthracis; Bacillus anthracis): 0.001 µg/mL (≈ 0.0027 µM) | MIC90 (B. anthracis; Bacillus anthracis): 0.002 µg/mL (≈ 0.0054 µM) | MIC (P. aeruginosa ATCC 27853): 1 µg/mL (≈ 2.7 µM) | MIC (E. coli ATCC 25922): ≤ 0.004 µg/mL | MIC range (B. mallei): ≤0.004 to 0.5 µg/mL | MIC50 (B. mallei): 0.015 µg/mL (≈ 0.0405 µM) | MIC90 (B. mallei): 0.12 µg/mL (≈ 0.324 µM) | permeability [4]: good | IC50 (E. coli Topo IV): 4.22 to 8.45 µM | IC50 (S. aureus Topo IV): 4 to 30 µM | viable intracellular bacteria 24 h after initiation of treatment [5]: no viable bacteria detectable | MIC ([5]; Burkholderia pseudomallei, read-out: MIC for B. pseudomallei strain 1026b measured for the intracellular experiment): 0.25 µg/mL (≈ 0.675 µM) | MIC [6]: 0.5 to 1 µg/mL (≈ 1.35 to 2.7 µM) | MIC range (Y. pestis): 0.002 to 0.03 µg/mL | MIC50 (Y. pestis; Yersinia pestis): 0.008 µg/mL (≈ 0.0216 µM) | MIC90 (Y. pestis; Yersinia pestis): 0.015 µg/mL (≈ 0.0405 µM)

CC(C)(O/N=C(\C(=O)N[C@@H]1C(=O)N2C(C(=O)[O-])=C(C[n+]3ccccc3)CS[C@H]12)c1csc(N)n1)C(=O)O [Ceftazidime, ceftazidime]
MIC50 (B. pseudomallei): 1 µg/mL (≈ 1.83 µM) | MIC90 (B. pseudomallei): 64 µg/mL (≈ 117 µM) | effect on intracellular survival of B. pseudomallei in macrophages [7]: no effect | survival [8]: 100% | MIC (P. aeruginosa ATCC 27853): 4 µg/mL (≈ 7.32 µM) | MIC (E. coli ATCC 25922): 0.25 µg/mL (≈ 0.457 µM)

C[C@@H](O)[C@H]1C(=O)N2C(C(=O)O)=C(S[C@@H]3CN[C@H](C(=O)N(C)C)C3)[C@H](C)[C@H]12 [Meropenem, meropenem]
MIC range (B. pseudomallei): ≤0.06 to 4 µg/mL | MIC50 (B. pseudomallei): 0.5 µg/mL (≈ 1.3 µM) | MIC90 (B. pseudomallei): 1 µg/mL (≈ 2.61 µM)

From PMC6879241 (Antimicrobial Agents and Chemotherapy, 2019)
